From patent US20240245804A1 (priority 2021, published 2024)
Entries after “also recorded” stand apart in the source; their conditions may differ.

B1: CdaA: c-di-AMP cyclase from Listeria monocytogenes, wild type, expressed from plasmid in HEK 293T cells (protein, UniProt Q45589 1-273, looked up)
Cyclic di-AMP synthase CdaA: MAFEDIPFLQYLGNAVDILLVWYVIYKLIMVIRGTKAVQLLKGIVVIVLVRMASQYLGLSTLQWLMDQAITWGFLAIIIIFQPELRRALEQLGRGRFFSRSGTPVEEAQQKTIEAITKAINYMAKRRIGALLTIERDTGMGDYIETGIPLNAKVSSELLINIFIPNTPLHDGAVIMKNNEIAAAACYLPLSESPFISKELGTRHRAAVGISEVTDSLTIIVSEETGGVSVAKNGDLHRELTEEALKEMLEAEFKKNTRDTSSNRWYWRGKKNG

How the values were obtained:
STING [1] = type: cell-based, mouse
STING [2] = type: cell-based, mouse; remark: listed apart in the source
STING [3] = type: cell-based, mouse; remark: listed apart in the source
STING [4] = type: cell-based, mouse; remark: listed apart in the source
[5] = tested on: THP1-Blue-ISG reporter cells; type: cell-based

Molecule | induction of nitrite (STING [1]) | induction of IFNß (STING [2]) | STING agonism evidenced by induction of a variety of inflammatory genes (STING [3]) | STING agonism / activation of the pathway (STING [4]) | SEAP activity (activation of interferon signaling) [5]
Nc1ncnc2c1ncn2[C@@H]1O[C@@H]2COP(=O)(O)O[C@H]3[C@@H](O)[C@H](n4cnc5c(N)ncnc54)O[C@@H]3COP(=O)(O)O[C@H]2[C@H]1O [c-di-AMP] | more potent induction | more potent induction | agonists of STING; also recorded: stronger activation | agonists of STING; also recorded: stronger activation | 
Nc1nc2c(ncn2[C@@H]2O[C@@H]3COP(=O)(O)O[C@H]4[C@@H](O)[C@H](n5cnc6c(N)ncnc65)O[C@@H]4COP(=O)(O)O[C@@H]2[C@@H]3O)c(=O)[nH]1 [cGAMP, 2′3′-cGAMP] |  |  | agonists of STING |  | 
B1 |  |  |  |  | displayed activity
